Values quoted from earlier work, collected in patent US20070298135A1, “TOPICAL HERBAL FORMULATIONS” (BIOBOTANIC CORP., priority 2006, published 2007).

C[C@@H]1CC[C@@]2(OC1)O[C@H]1C[C@H]3[C@@H]4CC=C5C[C@@H](O[C@@H]6O[C@H](CO)[C@@H](O[C@@H]7O[C@@H](C)[C@H](O)[C@@H](O)[C@H]7O)[C@H](O)[C@H]6O[C@@H]6O[C@@H](C)[C@H](O)[C@@H](O)[C@H]6O)CC[C@]5(C)[C@H]4CC[C@]3(C)[C@H]1[C@@H]2C [Doscin]
solubility in lipophilic organic solvent (lipophilic organic solvent): insoluble | solubility in polar liquid media (methanol, ethanol, n-butanol, water, hydrate methanol and ethanol, soluble = at least 0.1 mg/ml (w/v) at about 25° C.): soluble
